# Test results reported in US20040110803A1, “Methods and compositions for the use of D-malic acid to decrease serum triglyceride, cholesterol and lipoprotein levels” (priority 2002, published 2004).
# Where a name gives a salt, the structure may show the parent alone. Read-outs that look alike come from different tables or passages of the source.
# Assays:
# [1] = tested on: Zucker fa/fa rat; assay: Experiment I: body weight and serum analysis of Zucker fa/fa rats given D,L-malic acid, sodium salt in drinking water; type: in vivo; parameters: Serum T Chol / Serum HDL / Serum LDL / Serum VLDL / Serum Glucose: unit not given here; conditions: for Body Wt. / Serum Glucose / Serum HDL / Serum T Chol / Serum Triglyceride / Serum BUN / Serum Creatine / Serum K+ / Serum Na+ / Serum ALT / Serum AST / Serum LDL / Serum VLDL: mean ± SEM; for Body Wt.: in g; for Serum BUN / Serum Creatine: in mg/dL (unit assumed); for Serum K+ / Serum Na+: in mmol/L (unit assumed); for Serum ALT / Serum AST: in U/L (unit assumed); for Serum VLDL: calculated
# Description: The Zucker fa/fa rat model was selected to test the effects of malic acid supplements to the diet. The Zucker fa/fa rat is a genetically obese rat associated to elevated leptin levels in the blood. Among humans and most animal models, leptin is known to […], leading to elevated caloric intake and obesity. Associated with the leptin production is an elevation in serum insulin (Giridharan 1998). Thus, obesity can arise from the increase food intake and/or the lipogenic effects of insulin on adipose tissue and liver.
# Two separate experiments were conducted on the Zucker fa/fa rat. The first experiment served as a pilot study for the second. In Experiment I, ten male, 7-week-old Zucker fa/fa rats were divided into two parametric groups based upon the results of a clinical serum analysis for lipids, glucose, hepatic enzymes, and ions. […] The control group of five rats received only tap water. After 2, 4, 7, and 10 and 12 weeks of treatment, 1-2 mL whole blood was collect from each rat via the tail caudal vein and the serum retained for analysis. All serum analysis was conducted in the out-patient clinical laboratory of the University Hospital of the University of Alabama at Birmingham with a Synchron LX System. The following methods for each parameter are used in their automated clinical systems.
# [2] = tested on: liver of Zucker fa/fa rat; assay: Experiment I: hepatic nucleotide analysis by HPLC of frozen-acid extracted liver; type: in vivo; conditions: 12 weeks treatment
# Protocol: After eight weeks of treatment, Experiment I was concluded with all ten rats being anesthetized with pentobarbital (40 mg/kg, i.p). Immediately prior to the rat's euthanasia, a portion of the medial lobe of the liver was weighed, immediately frozen, pulverized and extracted in 12% perchloric acid in dry ice for nucleotide analysis. The acid extracted tissue was thawed, neutralized in saturated potassium bicarbonate and centrifuged at 10,000×g for 15 minutes. The final supernatant was analyzed for nucleotides by HPLC according to the method of Jenkins, et al (1988).
# [3] = tested on: Zucker fa/fa rat
# Protocol: After eight weeks of treatment, Experiment I was concluded with all ten rats being anesthetized with pentobarbital (40 mg/kg, i.p). […] In addition to body weight, the heart, liver, epididymal fat and left kidney were weighed. The aorta and a portion of the medial lobe of the liver were fixed in buffered 10% formalin and prepared for paraffin embedding and sectioning for pathological analysis.
# [4] = tested on: Zucker fa/fa rat; conditions: in vivo
# Protocol: (§1) In experiment II, forty male Zucker fa/fa rats at five to seven weeks of age began treatment similarly to the rats in Experiment I. At about 5 weeks of age, whole blood was collected from the tail caudal vein of each rat and lipid profiles were measured on the serum.
# (§2) Food and water consumption was measured daily for each cage of two rats. Body weight was measured and tail caudal vein blood samples were collected at 6, 8, 10, 12, 14, 16, and 18 and 24 weeks of age. Rats received their oral treatment of malic acid isomers prior to the onset of hyperlipidemia and continued for 16 weeks. The lipid/liver profile was measured on the serum of each rate with the determination of serum triglycerides, total cholesterol, HDL, glucose, AST and ALT with the same procedures of Experiment I.
# (§3) Experiment II. This follow-up experiment doubled the number of rats per group (ten/group) and included treatment groups to distinguish the roles of the D isomer and the L isomer of malic acid (Control, L-Malic, D,L-Malic, and D-Malic Acid).
# [5] = tested on: Zucker fa/fa rat; assay: Experiment I: body weight and serum analysis of Zucker fa/fa rats given D,L-malic acid, sodium salt in drinking water; type: in vivo
# [6] = tested on: Zucker fa/fa rat; assay: Experiment II: L-, D,L- and D-malic acid in drinking water, food/water consumption, body weight, serum lipid/liver profile; conditions: for linear slope of body weight versus serum triglycerides, vs control and L-malic acid treated rats: FIG. 3, p≦0.01; for effect on serum lipid levels (hypolipidemic effect): oral, Zucker obese rat, conclusion in words; for water consumption, means between groups: L-malic acid vs control at 10 and 11 weeks of treatment
# Protocol: as §1, §2, §3
# [7] = tested on: liver mitochondria; conditions: for concentrations at which not metabolized by mitochondria: oxygen consumption, FIG. 5
# Protocol: To determine the effect of D-malic acid on hepatic mitochondria, mitochondria from the Sprague Dawley rat used for isoenzyme studies were prepared according to the method of Johnson and Lardy (1967). The […] pellet was resuspended in cold sucrose buffer and recentrifuged at 600×g. This supernatant was mixed with the original 600×g supernatant. The 10,000×g mitochondria pellet was suspended in 5 mL of sucrose buffer. […] Consumption of oxygen was represented as percent of oxygen saturation.
# [8] = after four and six weeks of treatment, but not beyond, P≦0.05
# [9] = −2 weeks Treatment (before dosing)
# [10] = after 18 and 24 weeks of treatment, P≦0.01
smiles,measurement,setting,value
"O=C(O)CC(O)C(=O)O (racemic) [D,L-malic acid, D,L-malic acid, sodium salt]",Body Wt.,[1]; 0 weeks Treatment (start of dosing),484 ± 10
same,Serum Glucose,[1]; 2 weeks Treatment,167 ± 14
same,Serum HDL,[1]; 2 weeks Treatment,92 ± 4
same,Serum T Chol,[1]; 2 weeks Treatment,96 ± 5
same,Serum Triglyceride,[1]; 2 weeks Treatment,358 ± 51 mg %
same,Body Wt.,[1]; 2 weeks Treatment,553 ± 14
same,Serum BUN,[1]; 2 weeks Treatment,13 ± 0.5
same,Serum Creatine,[1]; 2 weeks Treatment,.42 ± .02
same,Serum K+,[1]; 2 weeks Treatment,5.6 ± 0.3
same,Serum Na+,[1]; 2 weeks Treatment,141 ± 0.6
same,Serum Glucose,[1]; 4 weeks Treatment,156 ± 12
same,Serum HDL,[1]; 4 weeks Treatment,87 ± 3
same,Serum T Chol,[1]; 4 weeks Treatment,99 ± 5
same,Serum Triglyceride,[1]; 4 weeks Treatment,522 ± 82 mg %
same,Serum ALT,[1]; 4 weeks Treatment,64 ± 4
same,Serum AST,[1]; 4 weeks Treatment,145 ± 13
same,Body Wt.,[1]; 4 weeks Treatment,592 ± 15
same,Serum BUN,[1]; 4 weeks Treatment,12 ± 0.6
same,Serum Creatine,[1]; 4 weeks Treatment,.38 ± .02
same,Serum K+,[1]; 4 weeks Treatment,5.8 ± 0.1
same,Serum Na+,[1]; 4 weeks Treatment,143 ± 1.1
same,Serum Glucose,[1]; 7 weeks Treatment,173 ± 10
same,Serum HDL,[1]; 7 weeks Treatment,110 ± 5
same,Serum T Chol,[1]; 7 weeks Treatment,120 ± 8
same,Serum Triglyceride,[1]; 7 weeks Treatment,422 ± 44 mg %
same,Serum ALT,[1]; 7 weeks Treatment,68 ± 2
same,Serum AST,[1]; 7 weeks Treatment,126 ± 6
same,Body Wt.,[1]; 7 weeks Treatment,660 ± 19
same,Serum BUN,[1]; 7 weeks Treatment,11 ± 0.3
same,Serum Creatine,[1]; 7 weeks Treatment,.34 ± .02
same,Serum K+,[1]; 7 weeks Treatment,5.4 ± 0.2
same,Serum Na+,[1]; 7 weeks Treatment,144 ± 0.4
same,Serum Glucose,[1]; 10 weeks Treatment,141 ± 10
same,Serum HDL,[1]; 10 weeks Treatment,107 ± 10
same,Serum LDL,[1]; 10 weeks Treatment,1.4 ± 1.4
same,Serum T Chol,[1]; 10 weeks Treatment,123 ± 14
same,Serum Triglyceride,[1]; 10 weeks Treatment,430 ± 39 mg %
same,Serum VLDL,[1]; 10 weeks Treatment,4 ± 4
same,Serum ALT,[1]; 10 weeks Treatment,69 ± 4
same,Serum AST,[1]; 10 weeks Treatment,94 ± 2
same,Body Wt.,[1]; 10 weeks Treatment,708 ± 26
same,Serum BUN,[1]; 10 weeks Treatment,16 ± 1.2
same,Serum Creatine,[1]; 10 weeks Treatment,.32 ± .02
same,Serum K+,[1]; 10 weeks Treatment,6.6 ± 0.2
same,Serum Na+,[1]; 10 weeks Treatment,143 ± 0.8
same,Serum Glucose,[1]; 12 weeks Treatment,153 ± 9
same,Serum HDL,[1]; 12 weeks Treatment,117 ± 9
same,Serum LDL,[1]; 12 weeks Treatment,6 ± 0.4
same,Serum T Chol,[1]; 12 weeks Treatment,137 ± 14
same,Serum Triglyceride,[1]; 12 weeks Treatment,437 ± 35 mg %
same,Serum VLDL,[1]; 12 weeks Treatment,14 ± 5
same,Serum ALT,[1]; 12 weeks Treatment,71 ± 6
same,Serum AST,[1]; 12 weeks Treatment,115 ± 16
same,Body Wt.,[1]; 12 weeks Treatment,722 ± 30
same,Serum Creatine,[1]; 12 weeks Treatment,.34 ± .02
same,Serum K+,[1]; 12 weeks Treatment,6.4 ± 0.1
same,Serum Na+,[1]; 12 weeks Treatment,141 ± 0.6
same,serum ALT vs control,[1]; [8],significantly lowered
same,"serum glucose, sodium, or potassium, HCO3, chloride, and BUN levels vs control",[1]; in words,no detectable affect
same,serum triglyceride levels vs control,"[1]; ten and twelve weeks of treatment, P≦0.001",differences were more remarkable
same,effect on body weight,"[1]; vs control, in words",no effect
same,Serum Glucose,[1]; [9],147 ± 2
same,Serum HDL,[1]; [9],90 ± 3
same,Serum T Chol,[1]; [9],91 ± 4
same,Serum Triglyceride,[1]; [9],387 ± 41 mg %
same,Body Wt.,[1]; [9],359 ± 6
same,Serum BUN,[1]; [9],21 ± 0.9
same,Serum Creatine,[1]; [9],0.46 ± 0.02
same,Serum K+,[1]; [9],6.1 ± 0.2
same,Serum Na+,[1]; [9],147 ± 0.2
same,hepatic tissue NAD levels vs control,[2],elevated but not significantly
same,hepatic tissue levels of NADP vs control,[2],significantly elevated
same,mean hepatic purine nucleotides vs control,[2],No significant differences
same,Mean Hepatic Purine Dinucleotide Levels: NAD,[2]; ± SEM,350 ± 23 nmoles/gm tissue wet wt.
same,Mean Hepatic Purine Nucleotides Level: ADP,[2]; ± SEM,125 ± 7 nmoles/gm tissue wet wt.
same,Mean Hepatic Purine Nucleotides Level: AMP,[2]; ± SEM,168 ± 18 nmoles/gm tissue wet wt.
same,Mean Hepatic Purine Nucleotides Level: ATP,[2]; ± SEM,556 ± 35 nmoles/gm tissue wet wt.
same,Mean Hepatic Purine Nucleotides Level: Adenosine,[2]; ± SEM,65 nmoles/gm tissue wet wt.
same,Mean Hepatic Purine Dinucleotide Levels: NADP,"[2]; ± SEM, significantly different P ≦ 0.05",61.7 ± 3.8 nmoles/gm tissue wet wt.
same,histological examination of the aorta,[3]; 12 week (20 weeks of age),no pathology associated with plaque formation
same,"Percent Fatty Deposition in Hepatocytes, Mean of 200 cells/rat ± SEM","[3]; 12 week treated, liver sections 8 um",45.69 ± 0.62%
same,Mean Organ Weights: Epididymal Fat,"[3]; 12 week treated, ± SEM",0.350 ± .050 gram
same,percent of fatty inclusions in hepatocytes vs control,"[3]; 200 hepatocytes, liver sections 8 um",no significant differences
same,"water consumption, means between groups",[4],did not differ
same,serum HDL cholesterol vs control,"[5]; after eight weeks of treatment, P≦0.05",significant decrease
same,serum AST vs control,[5]; [8],significantly lowered
same,serum total cholesterol vs control,"[5]; after six weeks of treatment, P≦0.05",significant decrease
same,serum triglyceride levels vs control,"[5]; two to eight weeks of treatment, P≦0.01",significantly decreased
same,"linear slope of body weight versus serum triglycerides, vs control and L-malic acid treated rats",[6],differs significantly
same,mean serum triglycerides vs controls,[6]; [10],decreased below controls
same,effect on serum lipid levels (hypolipidemic effect),[6],significant hypolipidemic effect
"O=C(O)C[C@H](O)C(=O)O [L-malic acid, L-malic acid, sodium salt, reference compound]",food consumption (rat chow consumed/rat/day) vs control,[6]; 6 to 20 weeks of age,tended to eat more rat chow
same,mean serum levels of triglycerides vs control,[6]; 8 to 24 weeks of age,no significant difference
same,mean serum total cholesterol vs control,[6]; 8 to 24 weeks of age,no significant difference
same,"water consumption, means between groups",[6]; sodium salt,Significant differences
same,mean serum triglycerides vs controls,[6]; after 24 weeks of age (18 weeks of treatment),greater mean serum triglycerides than controls but not statistically significant
same,mean serum glucose vs control,"[6]; only weeks 8 and 16, P≦0.05",sporadically (only weeks 8 and 16) elevated
same,effect on serum lipid levels (hypolipidemic effect),"[6]; listed as L-isomer of malic acid, sodium salt",no effect
"O=C(O)C[C@@H](O)C(=O)O [D-malic acid, D-malic acid, sodium salt]",effect on the metabolism of L-malic acid by mitochondria,[7]; 20 umoles/5 mL D-malic acid,inhibited
same,transport of L-malic acid into the mitochondria,[7]; mitochondrial incubations,partially blocks
same,concentrations at which not metabolized by mitochondria,[7],less than 40 umoles/5 mL
same,concentrations at which not metabolized by mitochondria,[7]; converted,< 6.7 mM
same,"linear slope of body weight versus serum triglycerides, vs control and L-malic acid treated rats",[6],differs significantly
same,"water consumption, means between groups",[6],did not differ
same,mean serum triglycerides compared to controls,"[6]; after 12 weeks and beyond of treatment, P≦0.05",lowered
same,mean serum triglycerides vs controls,[6]; [10],decreased below controls
same,effect on serum lipid levels (hypolipidemic effect),[6],effective
